Test results published in US8853219B2, “Compounds and compositions for cognition-enhancement, methods of making, and methods of treating” (NeuroSolis, Inc., priority 2010, dated 2014).
Where a chain is given by its changes, count along the chain named. Read-outs that look alike come from different tables or passages of the source. Values belong to the compound of their own block, whether it stands above or below them.

What was measured:
[1] = system: pooled male human liver microsomes; test: Metabolism by human liver microsomes; format: in vitro ADME; details: for Metabolism in human liver microsomes: 6 hours incubation; for Rate of metabolism, S- versus R-enantiomer: human liver microsomes, as also in rat liver microsomes and FMO Supersomes
Experimental: Compounds were incubated with pooled male human liver microsomes (BD Biosciences, #452172) and an NADP-regenerating system in a phosphate buffer (pH 7.4) for a total of 6 hours. Aliquots were removed every 2 hours, and 1% formic acid was added to halt the reaction. Samples were centrifuged, filtered through 0.2 micron spinfilter and the amount of each compound in the supernatants was quantitated using LC/MS/MS.

[2] = molecular target: T1, human muscarinic M3 receptors (Homo sapiens, UniProt P20309); test: Stimulation of inositol phosphate production in A9L cells, human M3 (IPOne TR-FRET); format: cell-based; details: for huM3/A9L Smax: percentage of maximal stimulation by carbachol
T1 construct: host or cells: A9L cells
T1 sequence (P20309 whole entry): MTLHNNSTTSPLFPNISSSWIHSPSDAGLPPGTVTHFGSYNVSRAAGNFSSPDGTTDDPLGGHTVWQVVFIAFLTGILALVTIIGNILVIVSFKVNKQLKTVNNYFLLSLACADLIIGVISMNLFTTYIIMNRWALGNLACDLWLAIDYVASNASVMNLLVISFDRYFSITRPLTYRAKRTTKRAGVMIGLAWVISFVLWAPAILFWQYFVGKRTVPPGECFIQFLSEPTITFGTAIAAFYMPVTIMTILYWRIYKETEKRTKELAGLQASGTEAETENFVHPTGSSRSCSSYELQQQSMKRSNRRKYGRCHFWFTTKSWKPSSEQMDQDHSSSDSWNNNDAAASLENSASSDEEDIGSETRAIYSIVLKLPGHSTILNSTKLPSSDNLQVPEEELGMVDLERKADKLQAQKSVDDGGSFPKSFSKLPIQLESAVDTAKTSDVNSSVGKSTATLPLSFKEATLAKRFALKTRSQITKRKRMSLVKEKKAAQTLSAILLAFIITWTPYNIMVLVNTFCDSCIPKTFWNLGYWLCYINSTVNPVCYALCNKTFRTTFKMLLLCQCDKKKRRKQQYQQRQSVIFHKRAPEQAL
Experimental: (§1) Muscarinic M1 and M3 agonist activity was evaluated by measuring the stimulation of inositol phosphate (IP) production in the presence of lithium chloride from A9L cells transfected with expression plasmids containing human muscarinic M1 and M3 receptors, respectively. The cell lines were a gift from Professor W Messer, and the methods were as described in Tejada F R et al. J. Med. Chem. 2006; 49: 7518-31 except that the assay was scaled down to run in 384 well plates, and IP was measured in the cell lysates using the non-isotopic IPOne TR-FRET assay (CIS-BIO, Inc).
(§2) Cells were grown to 90% confluence in 384 well hi-base plates (Greiner Bio-One), compounds were added at suitable concentrations in growth medium containing 10 mM LiCL, buffered with an extra 10 mM HEPES (pH7.4), and incubated for 60 minutes at 37° C. Cells were lysed and assayed for IP following the manufacturer's instructions.
(§3) The value for a full agonist is 100%, while partial agonists give values below 100%.

[3] = molecular target: T2, human muscarinic M1 receptors (Homo sapiens, UniProt P11229); test: Stimulation of inositol phosphate production in A9L cells, human M1 (IPOne TR-FRET); format: cell-based; details: for huM1/A9L Smax: percentage of maximal stimulation by carbachol
T2 construct: host or cells: A9L cells
T2 sequence (P11229 1-460): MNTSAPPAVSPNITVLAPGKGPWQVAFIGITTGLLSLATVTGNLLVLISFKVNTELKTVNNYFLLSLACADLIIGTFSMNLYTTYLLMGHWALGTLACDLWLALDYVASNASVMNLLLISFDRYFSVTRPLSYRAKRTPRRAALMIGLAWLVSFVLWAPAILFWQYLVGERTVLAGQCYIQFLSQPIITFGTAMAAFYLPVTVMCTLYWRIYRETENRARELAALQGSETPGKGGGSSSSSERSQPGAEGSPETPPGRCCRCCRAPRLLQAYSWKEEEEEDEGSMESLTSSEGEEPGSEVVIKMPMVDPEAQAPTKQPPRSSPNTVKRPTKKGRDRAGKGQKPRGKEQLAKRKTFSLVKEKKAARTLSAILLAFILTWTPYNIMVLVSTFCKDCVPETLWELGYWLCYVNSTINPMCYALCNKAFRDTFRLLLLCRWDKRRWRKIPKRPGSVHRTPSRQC
Experimental: as §1, §2, §3

rat M1 receptors = molecular target: T3, rat M1 receptors (Rattus norvegicus, UniProt P08482); test: PI turnover (inositol phosphate production) in M1-CHO cells; format: cell-based; details: M1 versus M3 cell lines
T3 construct: host or cells: Chinese Hamster Ovary cells (M1-CHO)
T3 sequence (P08482 1-460): T2 sequence (P11229 1-460) with A5V, T254S, P309S, R320K, A337G, I413V
Experimental: The medium was changed to 70 μL/well of inositol-free DMEM containing 2 mM glutamine, 10% FBS and 10 μCi/ml of [3H]-inositol (PE:cat #NET114A250UC), incubated overnight as above, then 100 μL of a solution of the test compound in HBSS containing 10 mM LiCl and 20 mM HEPES, pH 7.4 was added, incubation was continued for 60 min under the above conditions, and the test was stopped by removing the test compound and replacing with 100 μL of 50 mM formic acid in water at 4° C.

[4] = Blood and brain concentrations (rats) after oral gavage; format: in vivo, rat; details: for Brain Cmax (10 mg/kg po) 1 hr MCD-386 = 1.00: rat brain, relative to MCD-386; for Penetration into the brain: rats after oral dosing
Experimental: Long-Evans Hooded rats (Charles River: male, 250-350 g) were dosed with solutions of test compounds in PBS by oral gavage. At the desired time after dosing, the animals were anesthetized with isoflurane, and then euthanized by cervical dislocation. Blood was obtained by cardiac puncture, transferred to a 1.5 mL microcentrifuge tube containing 15U Heparin, and the plasma recovered after centrifugation. Brains were dissected, weighed, immediately chilled to 4° C., and homogenized using a PowerGen 125 homogenizer in five volumes of ice-cold 2% formic acid. Proteins were precipitated from plasma and brain homogenate with two and five volumes respectively of ice-cold 2% formic acid and clarified by centrifugation. The supernatant was ultra-filtered by centrifugation through a 3K MWCO spin column (Pall Life Sciences), following the manufacturer's instructions. The concentration of compound in the ultra-filtrate was subjected to reverse-phase liquid chromatography using a 150×2.1 mm Agilent C8 reverse-phase column on a Shimadzu Prominence LC, eluting the compounds with a gradient of 2% to 50% of acetonitrile+0.1% formic acid for compound MI-50,382, or an isocratic flow of 2% acetonitrile+0.1% formic acid for the rest of the compounds listed. The concentration of the compound in the column effluent was measured using an Applied Biosystems API-3200 triple quadrupole mass spectrometer equipped with an electrospray sample injection system. The counts of the characteristic parent and product ions of each test compound were converted to concentration units by comparison with a standard calibration curve.

Compound: Cc1noc([C@H]2CCCNC2)n1 [Compound 3a, S-(+)-3-methyl-5-(piperidin-3-yl)-1,2,4-oxadiazole]
Metabolism in human liver microsomes [1]: metabolized significantly less in human liver microsomes than in rat liver microsomes
Rate of metabolism, S- versus R-enantiomer [1]: metabolized faster than the R-enantiomers
huM3/A9L ED50 relative to CCh [2]: +/− (key: ++: potency > 10x CCh; +: potency 2-10x CCh; +/−: potency 0.5-2x CCh; −: potency < 0.5-0.1x CCh; −−: potency < 0.1x CCh; inactive: potency too low to determine)
huM1/A9L ED50 relative to CCh [3]: + (key: ++: potency > 10x CCh; +: potency 2-10x CCh; +/−: potency 0.5-2x CCh; −: potency < 0.5-0.1x CCh; −−: potency < 0.1x CCh; inactive: potency too low to determine)

Compound: Cc1noc([C@@H]2CCCNC2)n1 [Compound 3b, R-(−)-3-methyl-5-(piperidin-3-yl)-1,2,4-oxadiazole]
Metabolism in human liver microsomes [1]: metabolized significantly less in human liver microsomes than in rat liver microsomes
huM3/A9L ED50 relative to CCh [2]: − (key: ++: potency > 10x CCh; +: potency 2-10x CCh; +/−: potency 0.5-2x CCh; −: potency < 0.5-0.1x CCh; −−: potency < 0.1x CCh; inactive: potency too low to determine)
huM1/A9L ED50 relative to CCh [3]: +/− (key: ++: potency > 10x CCh; +: potency 2-10x CCh; +/−: potency 0.5-2x CCh; −: potency < 0.5-0.1x CCh; −−: potency < 0.1x CCh; inactive: potency too low to determine)

Compound: [2H]C([2H])([2H])c1noc([C@H]2CCCNC2)n1 [Compound 7a, S-(+)-3-D3-methyl-5-(piperidin-3-yl)-1,2,4-oxadiazole]
Metabolism in human liver microsomes [1]: metabolized significantly less in human liver microsomes than in rat liver microsomes
Rate of metabolism, S- versus R-enantiomer [1]: metabolized faster than the R-enantiomers
huM3/A9L ED50 relative to CCh [2]: −− (key: ++: potency > 10x CCh; +: potency 2-10x CCh; +/−: potency 0.5-2x CCh; −: potency < 0.5-0.1x CCh; −−: potency < 0.1x CCh; inactive: potency too low to determine)
huM1/A9L ED50 relative to CCh [3]: +/− (key: ++: potency > 10x CCh; +: potency 2-10x CCh; +/−: potency 0.5-2x CCh; −: potency < 0.5-0.1x CCh; −−: potency < 0.1x CCh; inactive: potency too low to determine)

Compound: [2H]C([2H])([2H])c1noc([C@@H]2CCCNC2)n1 [Compound 7b, R-(−)-3-D3-methyl-5-(piperidin-3-yl)-1,2,4-oxadiazole]
Metabolism in human liver microsomes [1]: metabolized significantly less in human liver microsomes than in rat liver microsomes
huM3/A9L ED50 relative to CCh [2]: +/− (key: ++: potency > 10x CCh; +: potency 2-10x CCh; +/−: potency 0.5-2x CCh; −: potency < 0.5-0.1x CCh; −−: potency < 0.1x CCh; inactive: potency too low to determine)
huM1/A9L ED50 relative to CCh [3]: + (key: ++: potency > 10x CCh; +: potency 2-10x CCh; +/−: potency 0.5-2x CCh; −: potency < 0.5-0.1x CCh; −−: potency < 0.1x CCh; inactive: potency too low to determine)

Compound: Cc1nsc(C2CCCNC2)n1.Cl (stereo not drawn) [Compound 12a, 3-methyl-5-(piperidin-3-yl)-1,2,4-thiadiazole hydrochloride]
huM3/A9L ED50 relative to CCh [2]: + (key: ++: potency > 10x CCh; +: potency 2-10x CCh; +/−: potency 0.5-2x CCh; −: potency < 0.5-0.1x CCh; −−: potency < 0.1x CCh; inactive: potency too low to determine)
huM1/A9L ED50 relative to CCh [3]: + (key: ++: potency > 10x CCh; +: potency 2-10x CCh; +/−: potency 0.5-2x CCh; −: potency < 0.5-0.1x CCh; −−: potency < 0.1x CCh; inactive: potency too low to determine)

Compound: c1nsc(C2CCCNC2)n1 (stereo not drawn) [Compound 12b, 5-(piperidin-3-yl)-1,2,4-thiadiazole]
huM3/A9L ED50 relative to CCh [2]: −− (key: ++: potency > 10x CCh; +: potency 2-10x CCh; +/−: potency 0.5-2x CCh; −: potency < 0.5-0.1x CCh; −−: potency < 0.1x CCh; inactive: potency too low to determine)
huM1/A9L ED50 relative to CCh [3]: − (key: ++: potency > 10x CCh; +: potency 2-10x CCh; +/−: potency 0.5-2x CCh; −: potency < 0.5-0.1x CCh; −−: potency < 0.1x CCh; inactive: potency too low to determine)

Compound: Cc1noc([C@H]2CCCN[C@@H]2C)n1 [Compound 19]
huM3/A9L Smax [2]: 34%
huM1/A9L Smax [3]: 15%

Compound: Cc1noc([C@H]2CCCN[C@@H]2C)n1 [Compound 20]
huM1/A9L Smax [3]: 9%

Compound: Cc1noc([C@H]2CCCN[C@@H]2C)n1 [Compound 21]
huM3/A9L Smax [2]: 14%
huM1/A9L Smax [3]: 18%

Compound: Cc1noc([C@H]2CCCN[C@@H]2C)n1 [Compound 22]
huM3/A9L Smax [2]: 15%
huM1/A9L Smax [3]: 7%

Compound: Cc1noc([C@H]2CCCN[C@@H]2C)n1 [Compound 23]
huM3/A9L Smax [2]: 19%
huM1/A9L Smax [3]: 23%

Compound: Cc1noc([C@H]2CCCN[C@@H]2C)n1 [Compound 24]
huM3/A9L Smax [2]: 32%
huM1/A9L ED50 relative to CCh [3]: −− (key: ++: potency > 10x CCh; +: potency 2-10x CCh; +/−: potency 0.5-2x CCh; −: potency < 0.5-0.1x CCh; −−: potency < 0.1x CCh; inactive: potency too low to determine)
huM1/A9L Smax [3]: 41%

Compound: Nc1noc(C2CCCNC2)n1 (stereo not drawn) [Compound 27, 3-Amino-5-(piperidin-3-yl)-1,2,4-oxadiazole]
huM3/A9L ED50 relative to CCh [2]: +/− (key: ++: potency > 10x CCh; +: potency 2-10x CCh; +/−: potency 0.5-2x CCh; −: potency < 0.5-0.1x CCh; −−: potency < 0.1x CCh; inactive: potency too low to determine)
huM1/A9L ED50 relative to CCh [3]: + (key: ++: potency > 10x CCh; +: potency 2-10x CCh; +/−: potency 0.5-2x CCh; −: potency < 0.5-0.1x CCh; −−: potency < 0.1x CCh; inactive: potency too low to determine)

huM3/A9L ED50 relative to CCh ([2]; potency class relative to carbachol): − (potency < 0.5-0.1x CCh)
Compound: Cc1noc(C2CCNC2)n1 (stereo not drawn) [Compound 31, 3-methyl-5-(pyrrolidin-3-yl)-1,2,4-oxadiazole]

Brain Cmax (10 mg/kg po) 1 hr MCD-386 = 1.00 [4]: 0.61
Penetration into the brain [4]: penetrated into the brain
Compound: Cl.[2H]C([2H])([2H])C([2H])([2H])c1noc(C2CN=CNC2)n1 (stereo not drawn) [compound 2, 3-(1,1,2,2,2-d5-ethyl)-5-(1,4,5,6-tetrahydropyrimidin-5-yl)-1,2,4-oxadiazole hydrochloride]
Functional selectivity for M1 subtype by PI turnover (rat M1 receptors): M1-subtype functionally selective muscarinic agonists

Brain Cmax (10 mg/kg po) 1 hr MCD-386 = 1.00 [4]: 0.82
Penetration into the brain [4]: penetrated into the brain
Compound: Cl.[2H]C([2H])(C)c1noc(C2CN=CNC2)n1 (stereo not drawn) [compound 6, 3-(1,1-d2-ethyl)-5-(1,4,5,6-tetrahydropyrimidin-5-yl)-1,2,4-oxadiazole hydrochloride]
Functional selectivity for M1 subtype by PI turnover (rat M1 receptors): M1-subtype functionally selective muscarinic agonists
